According to the NIST ThermoML archive (doi:10.1016/j.tca.2007.05.009):
Where “and” joins values, the source holds several entries; their conditions need not be identical. Equal values may be shown once. ± gives the expanded uncertainty stated by the source.

Settings: Crystal

CC/N=C(/N)S [ethylthiourea]
Settings | vapor or sublimation pressure
356.5 K, Calculated from knudsen effusion weight loss | 0.000282 ± 1.4e-05 kPa
357 K, Calculated from knudsen effusion weight loss | 0.000309 ± 1.6e-05 kPa
360 K, Torsion effusion method | 0.000331 ± 1.7e-05 kPa
360.5 K, Calculated from knudsen effusion weight loss | 0.000417 ± 2.1e-05 kPa
361 K, Torsion effusion method | 0.000437 ± 2.2e-05 kPa
362 K, Calculated from knudsen effusion weight loss | 0.00049 ± 2.5e-05 kPa
363 K, Torsion effusion method | 0.000447 ± 2.2e-05 kPa
364 K, Torsion effusion method | 0.00055 ± 2.8e-05 kPa
365 K, Torsion effusion method | 0.000661 ± 3.3e-05 kPa
366 K, Torsion effusion method | 0.000631 ± 3.2e-05 kPa
366.5 K, Torsion effusion method | 0.000813 ± 4.1e-05 kPa
367 K, Torsion effusion method | 0.000741 ± 3.7e-05 kPa
367.5 K, Calculated from knudsen effusion weight loss | 0.000912 ± 4.6e-05 kPa
368 K, Torsion effusion method | 0.000912 ± 4.6e-05 kPa and 0.000646 ± 3.2e-05 kPa
368.5 K, Torsion effusion method | 0.000794 ± 4e-05 kPa
369 K, Torsion effusion method | 0.000891 ± 4.5e-05 kPa
369.5 K, Torsion effusion method | 0.001175 ± 5.9e-05 kPa
370 K, Torsion effusion method | 0.001047 ± 5.2e-05 kPa and 0.000871 ± 4.4e-05 kPa
370.5 K, Torsion effusion method | 0.001175 ± 5.9e-05 kPa
371 K, Torsion effusion method | 0.001047 ± 5.2e-05 kPa and 0.001288 ± 6.5e-05 kPa and 0.001096 ± 5.5e-05 kPa
372 K, Torsion effusion method | 0.000977 ± 4.9e-05 kPa
373 K, Torsion effusion method | 0.001288 ± 6.5e-05 kPa
374 K, Torsion effusion method | 0.00138 ± 6.9e-05 kPa and 0.001738 ± 8.7e-05 kPa
374.5 K, Torsion effusion method | 0.001349 ± 6.8e-05 kPa
375 K, Torsion effusion method | 0.001862 ± 9.3e-05 kPa [middle of 4 runs]
376 K, Torsion effusion method | 0.001778 ± 8.9e-05 kPa [middle of 4 runs]
377 K, Torsion effusion method | 0.001905 ± 9.5e-05 kPa and 0.001698 ± 8.5e-05 kPa
378 K, Torsion effusion method | 0.002239 ± 0.00011 kPa [middle of 4 runs]
379 K, Torsion effusion method | 0.002692 ± 0.00014 kPa and 0.002884 ± 0.00014 kPa
379.5 K, Torsion effusion method | 0.00263 ± 0.00013 kPa
380 K, Torsion effusion method | 0.002951 ± 0.00015 kPa and 0.002188 ± 0.00011 kPa
380.5 K, Torsion effusion method | 0.002291 ± 0.00012 kPa
